Legend:
[1] = target: SARS-CoV-2 Main Protease (SARS-CoV-2) (UniProt P0DTD1)
[2] = target: SARS-CoV-2 Main Protease (SARS-CoV-2) (UniProt P0DTD1); remark: listed apart in the source

SMILES | inhibition ([1]; 20.0 µM) | inhibition ([1]; 50.0 µM) | IC50 [2] | inhibition ([2]; 50.0 µM) | IC50 [1] | inhibition ([2]; 20.0 µM)
CC(C)C[C@@H]1CN(C(=O)CCl)CCN1Cc1cccc(Cl)c1 (stereo in doubt) | 99.2% | 99.5% | 515 nM | 100% | – | –
Cc1nc(N)sc1CN1CCN(Cc2cccc(Cl)c2)C1=O | 5.38% | 35.6% | – | 0% | – | –
CCOc1ccccc1OC1CCN(C(=O)c2c(C)c(=O)[nH]c3ccccc23)C1 (configuration not stated) | 0.342% | 4.57% | – | 0% | – | –
Cc1cnc2c(-c3ccc4[nH]ncc4c3)c(-c3ccc(F)cc3)nn2c1 | -1.68% | -1% | – | 34.7% | – | –
NCCn1cc(C(=O)N2CC3(CCC3)c3cc(Br)ccc32)cn1 | -2.84% | 7.52% | – | 0% | – | –
CC(C)Cn1cc(NC(=O)NCCCN2CCC(C)CC2)c2ccccc2c1=O | -1.82% | -1.61% | 98200 nM | – | – | –
Cc1ccc(S(=O)(=O)Nc2c(-c3cccnc3)nc3ccccn23)c(C)c1 | 2.5% | 7.7% | – | 0% | – | –
N#Cc1cccc(CN2C(=O)C(=O)c3cccc(Br)c32)c1 | -5.42% | -2.38% | 17 nM | 91.2% | – | –
COc1ccccc1OCCNC(=O)c1cc(=O)[nH]c2cccc(F)c12 | 8.74% | 12.5% | 1830 nM | – | – | –
CC(C)Cn1cc(NC(=O)NC2=NN(c3ccccc3)CC2)c2ccccc2c1=O | 1.37% | 5.45% | – | -5.97% | – | –
O=C(NCCN1CCN(C(=O)CCl)CC1)c1cccc2ccccc12 | 6.97% | 4.69% | – | 23.8% | – | –
O=C(Cc1cc(Cl)cc(OC2CC(=O)N2)c1)Nc1cncc2ccccc12 (configuration not stated) | – | – | 157 nM | – | 203 nM | –
O=C(Nc1cccnc1)Nc1cc(O)cc(Cl)c1 | 4.43% | 21.2% | – | 19.4% | – | –
C=CC(=O)N(c1ccc2c(c1)C=CCCC2)C(C(=O)NC(C)(C)C)c1cccnc1 (configuration not stated) | 12.4% | 25.9% | – | 0% | – | –
Cc1ncccc1NC(=O)Cc1cccc(Cl)c1 | -4.59% | -3.9% | – | 0% | – | –
O=C(Cc1cc(Cl)cc2c1OCC2)Nc1cncc2ccccc12 | – | – | 492 nM | 78.3% | 1450 nM | –
CCC(=O)Nc1ccc(N(Cc2ccsc2)C(=O)Cn2nnc3ccccc32)cc1 | 79.7% | 89.3% | – | 78.1% | – | –
Cc1ccc(OCCN2C(=O)C(=O)c3cccc(Cl)c32)cc1 | 0.316% | 5.65% | 2150 nM | 77% | – | –
C=CC(=O)N(C1CC(C)OC1=O)C(C(=O)NC(C)(C)C)c1cccnc1 (configuration not stated) | -2.18% | 1.34% | – | 0% | – | –
O=C(Nc1cccc(C(F)(F)F)c1)Nc1ccccc1Sc1ncc([N+](=O)[O-])s1 | 55.9% | 76.3% | 219 nM | – | – | –
Cc1cn2c(-c3cccnc3)c(-c3ccc(F)cc3)nc2s1 | -2.02% | 1.34% | – | 31.5% | – | –
COc1ccccc1OCC(C)NC(=O)c1cc(=O)[nH]c2ccc(F)cc12 (configuration not stated) | 42% | 59.3% | – | 40.1% | – | –
Cc1ccn2c(-c3ccc4[nH]ncc4c3)c(-c3ccc(F)cc3)nc2c1 | 0.801% | 0.943% | – | 50.8% | – | –
COc1ccccc1OCCNC(=O)c1cc(=O)[nH]c2cccc(C)c12 | 91.8% | 96.4% | 2600 nM | 89.7% | – | –

SMILES | inhibition ([1]; 20.0 µM) | inhibition ([1]; 50.0 µM) | IC50 [2] | inhibition ([2]; 50.0 µM) | IC50 [1] | inhibition ([2]; 20.0 µM)
O=C(CCl)N1CCN(Cc2cnc(Cc3ccccc3)s2)CC1 | 41.5% | 51.6% | 34600 nM | 97.6% | – | –
COc1cc(Cl)cc(CC(=O)Nc2cnccc2C)c1 | 24.6% | 48.3% | 43600 nM | – | – | –
COc1ccc2c(c1F)NC(=O)C2=O | -1.15% | 3.02% | – | 7.79% | – | –
O=C(C(F)Cl)N1CCN(Cc2cccc3ccccc23)CC1 (configuration not stated) | 20.5% | 29.5% | – | 9.11% | – | –
O=S(=O)(Cc1ccccc1F)c1oc(-c2ccc(F)cc2)nc1S(=O)(=O)c1ccccc1 | 49% | 95.9% | 99.2 nM | – | – | –
Cc1cc(C)c(C#N)c(Sc2ncnc3c2nnn3Cc2ccccc2)n1 | 79% | 97.7% | 255 nM | – | – | –
N#Cc1cncc(NC(=O)Cc2c[nH]c3ncccc23)c1 | -0.384% | 0.0775% | – | 0% | – | –
N#CCCCOC(=O)c1cccc2c1NC(=O)C2=O | -3.65% | -1.22% | – | 0% | – | –
C=CC(=O)N(c1ccc(C(F)(F)F)cc1)C(C(=O)NCCc1cccc(F)c1)c1cncc(O)c1 (configuration not stated) | 26.8% | 44.9% | 17300 nM | – | – | –
Cn1cc(NC(=O)Nc2ccccn2)c2ccccc2c1=O | -2.17% | -0.727% | – | 0% | – | –
COc1ccccc1OC1CCCN(C(=O)c2c(C)c(=O)[nH]c3ccccc23)C1 (configuration not stated) | -2.54% | -1.13% | – | 0% | – | –
O=C1C(=O)N(CCCOc2ccc(Cl)cc2)c2ccccc21 | -0.218% | 3.47% | – | 7.23% | – | –
CC(C)C[C@H](NC(=O)OCc1ccccc1)C(=O)N[C@H](C(=O)NCC(=O)C=[N+]=[N-])C(C)C (stereo in doubt) | – | 11.5% | – | 15.3% | – | –
O=C(Nc1cccnc1)N(CCN1CCOCC1)c1cccc(Cl)c1 | 24.4% | 49.6% | – | 59.4% | – | –
CSC1=C(C#N)C2(CCCCC2)C(C#N)=C(NC(=O)CCl)N1 | – | – | 1520 nM | 97.5% | 1140 nM | –
C=CC(=O)N(c1ccc(C(C)(C)C)cc1)C(C(=O)NCCc1cccc(F)c1)c1cncc(O)c1 (configuration not stated) | 16.1% | 23.5% | 26200 nM | – | – | –
O=C(CCl)N1CCN(S(=O)(=O)c2ccc(Cc3cccc4ccccc34)cc2)CC1 | 20.6% | 29.9% | 15200 nM | 89% | – | –
COc1ccc(CN2C(=O)C(=O)c3cc(Br)cc(C)c32)cc1OC | -2.84% | 0.559% | 1230 nM | 99.3% | – | –
COc1ccc(Cl)cc1N1CCN(Cc2cc(=O)[nH]c3ccccc23)C1=O | -1.82% | 4.69% | – | 0% | – | –
O=C(Nc1nncn1C1CC1)C1CCS(=O)(=O)c2ccccc21 (configuration not stated) | 37.6% | 74.6% | 26800 nM | – | – | –
C/C(O)=C(\C#N)C(=O)Nc1ccc(C(F)(F)F)cc1 | -2.89% | -3% | – | 22.2% | – | –
N#Cc1cnn(C(=O)c2cccs2)c1C1CC1 | 33.2% | 69% | 363 nM | – | – | –
Cc1ccccc1NC(=O)CC1SC(=O)N(c2ccccc2)C1=O (configuration not stated) | 92.6% | 94.9% | 658 nM | – | – | –
OC[C@@]1(F)CCN(c2nc(-c3cccnc3)nc3sc4c(c23)CCC4)C1 (stereo in doubt) | 1.46% | 6.05% | – | 0% | – | –

SMILES | inhibition ([1]; 20.0 µM) | inhibition ([1]; 50.0 µM) | IC50 [2] | inhibition ([2]; 50.0 µM) | IC50 [1] | inhibition ([2]; 20.0 µM)
C=CC(=O)N1CCN(S(C)(=O)=O)CC1c1ccccc1 (configuration not stated) | -0.438% | 2.89% | – | 0% | – | –
CCc1cccc(CC)c1NC(=O)CN1C(=O)C(=O)c2cc(OC)ccc21 | -6.58% | -0.841% | – | 13% | – | –
CC(=O)/C(C#N)=C(\O)Nc1ccc(C(F)(F)F)cc1 | -2.89% | -3% | – | 22.2% | – | –
O=[N+]([O-])c1cnc(Sc2nnc(-c3ccc(Cl)cc3)o2)s1 | 28.9% | 71.2% | 319 nM | – | – | –
O=c1oc(Nc2ccccc2)nc2ccccc12 | 68.6% | 90.4% | 363 nM | – | – | –
O=C(CCl)N1CCN(Cc2cc(O)cc(Cl)c2)CC1 | 75% | 89.5% | 1570 nM | 98.9% | – | 92.7%
C=CC(=O)NCC(=O)N(Cc1ccccc1)C[C@H](O)c1ccccc1 (stereo in doubt) | -0.281% | 0.986% | – | 0% | – | –
O=C(Oc1cncc(Cl)c1)c1cccc2[nH]ccc12 | 99.8% | 100% | – | 100% | – | –
Cc1nc[nH]c1CN1CCN(Cc2cccc(Cl)c2)C1=O | -0.267% | 2.39% | – | 0% | – | –
O=C1CC(Oc2cc(Cl)cc(N(CCC3CCCCC3)C(=O)Nc3cncc4ccccc34)c2)N1 (configuration not stated) | – | – | 1580 nM | – | 105 nM | –
COc1cc(OC)cc(Oc2cccc(CNC(=O)Cn3nnc4ccccc43)c2)c1 | -3.39% | 0.116% | – | 0% | – | –
CC(C)n1cnnc1CNC(=O)C1CCOc2ccccc21 (configuration not stated) | -4.11% | -1.11% | – | 0% | – | –
O=[N+]([O-])c1cnc(Sc2nccc(-c3cccnc3)n2)s1 | 9.63% | 37.5% | 1440 nM | – | – | –
N#Cc1ccc(CN2CCC(C3CCNC3)CC2)cc1 (configuration not stated) | 97.1% | 98.9% | 1360 nM | – | – | –
O=C1C(=O)N(Cc2ncon2)c2ccc(Br)cc21 | -1.88% | -2.4% | 3790 nM | 94.1% | – | –
COC(=O)[C@H](CO)NC(=O)[C@H](Cc1ccccc1)NC(=O)OCc1ccccc1 (stereo in doubt) | 1.06% | 2.61% | – | 0% | – | –
CS(=O)(=O)N1CCc2ccc(CN3CCN(C(=O)CCl)CC3)cc2C1 | 29.9% | 62.5% | 38400 nM | 71.8% | – | –
O=C(Nc1ccc([N+](=O)[O-])cc1)c1cc(Cl)ccc1O | -7.24% | -15.6% | – | 6% | – | 2.8%
C=CC(=O)N(C1CCOC1=O)C(C(=O)NC(C)(C)C)c1cccnc1 (configuration not stated) | -5.08% | -7.63% | – | 0% | – | –
Cc1cc([C@H](C)C(=O)O)cc2[nH]c3ccc(Cl)cc3c12 (stereo in doubt) | 0.304% | 3.37% | – | 9.04% | – | –
C=CC(=O)N(C(CO)CC#CC)C(C(=O)NC(C)(C)C)c1cccnc1 (configuration not stated) | -4.06% | -4.3% | – | 0% | – | –
O=S(=O)(Cc1nc(-c2ccncc2)no1)Nc1ccc(N2CCCCC2)cc1 | 3.34% | 2.66% | – | 0% | – | –
COc1cccc(C(=O)Nc2n[nH]c(SCc3ccc(Cl)cc3)n2)c1 | 8.77% | 32.5% | 200 nM | – | – | –

Reference: the COVID Moonshot data (paper PMC11187573), “Identification of SARS-CoV-2 Mpro inhibitors through deep reinforcement learning for de novo drug design and computational chemistry approaches” (RSC Medicinal Chemistry, 2024)
